Test results as given in US12187749B2, “Application of dipyrrinato-iridium complexes in anti-tumor and anti-bacterial therapy” (BIOLITEC UNTERGEHMENSBETEILIGUNGS II AG, priority 2020, dated 2025).

Assays:
[1] = test system: Staphylococcus aureus DSM 1104; assay: Antibacterial testing (CFU/ml count) against S. aureus; assay type: cell-based; conditions: photosensitizer 100, 10 and 1 μM; for antibacterial activity against S. aureus in the absence of light: absence of light (dark toxicity control), 30 min incubation
Description: The organisms studied were Staphylococcus aureus DSM 1104, Gram-positive and Pseudomonas aeruginosa DSM 1117, Gram-negative. Cultures cells are suspended in sterile phosphate-buffered saline (PBS) or sterile PBS supplemented with 10% sterile horse blood serum. The bacterial suspensions are placed into sterile black well plates with clear bottoms. Concentrations of photosensitizer used in the study were as follows: 100 μM, 10 μM and 1 μM. After an incubation time period of 30 minutes, the samples are exposed to white light, with a power density and irradiation time resulting in an energy fluency of about 100 J/cm^2. Control plates contained no photosensitizer and are not exposed to laser light. The control samples for dark toxicity are only exposed to photosensitizer without any illumination. After irradiation, the samples are removed and suspended again in the culture media. The numbers of colony-forming units (CFU/ml) are enumerated after an adequate incubation time period.

[2] = test system: HT 29 and other cell lines; assay: Cell tests (XTT cell viability), dark toxicity, in HT 29 and other cell lines; assay type: cell-based; conditions: 2 or 10 μM photosensitizer, 24 h incubation, XTT assay
Description: The photosensitizing activity was determined in the following cell lines: • HT29 (human colon adenocarcinoma cell line) • L929 (mouse fibroblast cell line) • A431 (human epidermoid carcinoma cell line) • A253 (submaxillary salivary gland, epidermoid cell line) • CAL-27 (human tongue squamous cell carcinoma cell line) • J774A.1 (Mouse BALB/c monocyte macrophage).
The cell lines were grown in DMEM (c.c.pro GmbH) supplemented with 10% heat-inactivated fetal calf serum (FCS, c.c.pro GmbH), 1% penicillin (10000 IU) and streptomycin (10000 μg/ml, c.c.pro GmbH). Cells were kept as a monolayer culture in a humidified incubator (5% CO2 in air at 37° C.). A photosensitizer stock solution (2 mM) was performed in DMSO and was kept in the dark at 4° C. Further dilution was performed in DMEM medium without phenol red supplemented with 10% FCS to reach a final photosensitizer concentration of 2 or 10 μM, respectively. After seeding the cells in micro plates, the cells were incubated with fresh medium (DMEM without phenol red) containing 10% FCS with 2 or 10 μM of the photosensitizer for 24 h before light exposure. Before photosensitization, cells were washed, cell culture medium was exchanged with DMEM without phenol red and 10% FCS, then irradiated at room temperature with white light source at a fixed fluence rate of about 100 mW/cm^2 (50 J/cm^2). Following irradiation, cells were incubated in a humidified incubator (5% CO2 in air at 37° C.) for 24 h until cell viability assay. The cell viability was assessed by the XTT assay. 500 mg XTT (sodium 3′-[phenyl-aminocarbonyl)-3,4-tetrazolium]-bis(4-methoxy-6-nitro)benzene sulfonic acid, Applichem GmbH) is dissolved in 500 ml PBS-Buffer (without Ca^2+ and Mg^2) and sterile filtered. Solution was stored in the dark at −20° C. until use. A sterile solution containing PMS (N-methyl dibenzopyrazine methyl sulfate, Applichem GmbH) was needed as an activation reagent for the XTT. 0.383 mg PMS was dissolved in 1 ml PBS-Buffer. […] The absorbance of the samples was measured with a microplate reader (Infinite 200, Tecan Group Ltd.) at a wavelength of 490 nm.

Substance: Bis(2-phenylpyridyl){5-[2,3,5,6-tetrafluoro-4-(1′-thio-β-D-galactosyl)phenyl]-dipyrrinato}iridium(III) [Example 3.4]
- antibacterial activity in the presence of complex media (serum addition) ([1]; PBS supplemented with 10% sterile horse blood serum): antibacterial activity is also observed
- antibacterial activity against S. aureus in the absence of light [1]: high antibacterial activity

Substance: Bis(2-phenylpyridyl){5-[2,3,5,6-tetrafluoro-4-(1′-thio-β-D-glucosyl)phenyl]-dipyrrinato}iridium(III) [Example 3.3]
- antibacterial activity against S. aureus in the absence of light [1]: high antibacterial activity

Substance: Chlorido{5-[4-(N,N-dibutylamino)-3-nitrophenyl]dipyrrinato}(pentamethyl-cyclopentadienyl)iridium(III) [Example 1.6]
- toxicity to cells in the absence of light (dark toxicity) [2]: non-toxic

Substance: [5-(4-Butyloxy-2,3,5,6-tetrafluorophenyl)dipyrrinato]chlorido-(pentamethylcyclopentadienyl)iridium(III) [Example 1.3]
- toxicity to cells in the absence of light (dark toxicity) [2]: non-toxic

Substance: {5-[4-(N-2-Hydroxyethylamino)-2,3,5,6-tetrafluorophenyl]dipyrrinato}bis(2-phenyl-pyridyl)iridium(III) [Example 2.1]
- antibacterial activity against S. aureus in the absence of light [1]: high antibacterial activity

Substance: {5-[4-(N-Butylamino)-2,3,5,6-tetrafluorophenyl]dipyrrinato}chlorido-(pentamethylcyclopentadienyl)iridium(III) [Example 1.2]
- toxicity to cells in the absence of light (dark toxicity) [2]: non-toxic
